Values of other authors, collected in article PMC8198792, “Prediction of Anticancer Peptides with High Efficacy and Low Toxicity by Hybrid Model Based on 3D Structure of Peptides” (International Journal of Molecular Sciences, 2021).
Where two headings read alike, the source gives them in different places.

Legend:
cancer cell lines = tested on: cancer cell lines; set-up: method as in 6 sources, ref CancerPPD [45] and SATPdb ||| ref CancerPPD/SATPdb ||| ref CancerPPD, SATPdb, Swissprot (PDB) ||| ref CancerPPD/SATPdb/Swissprot(PDB) ||| ref CancerPPD / SATPdb ||| ...; conditions: cited from earlier work
Excerpt: Supplement ijms-22-05630-s001.zip/ACPs(seguence).xlsx, sheet "D1" | column: Activity || Supplement ijms-22-05630-s001.zip/ACPs(seguence).xlsx, sheet "D2" | column: Activity || Supplement ijms-22-05630-s001.zip/ACPs(seguence).xlsx, sheet "D3" | column: Activity || (+ 2 further places)

erythrocytes = conditions: cited from earlier work
Excerpt: Supplement ijms-22-05630-s001.zip/Hemloytic Peptides(seguence).xlsx, sheet "HD1" | column: Activity || Supplement ijms-22-05630-s001.zip/Hemloytic Peptides(seguence).xlsx, sheet "HD2" | column: Activity || Supplement ijms-22-05630-s001.zip/Hemloytic Peptides(seguence).xlsx, sheet "HD3" | column: Activity

[1] = ACPs dataset D3 (sheet "D3"), label 1 = ACP, 0 = non-ACP, ref CancerPPD/SATPdb
[2] = ACPs dataset D4 (sheet "D4"), label 1 = ACP, 0 = non-ACP, ref CancerPPD / SATPdb
[3] = ACPs dataset D5, sheet "D5", label 1 = ACP, 0 = non-ACP, ref CancerPPD [45] and SATPdb
[4] = ACPs dataset D3 (supplement sheet "D3"), 1 = ACP, 0 = non-ACP, ref CancerPPD [45] and SATPdb
[5] = Hemolytic peptides dataset HD2, label 1 = hemolytic, 0 = non-hemolytic, ref Hemolytik/SATPdb
[6] = hemolytic peptides dataset HD3, 1 = hemolytic (positive set), 0 = non-hemolytic (negative set), labels taken from databases, ref Hemolytik/SATPdb
[7] = ACPs dataset D4 (sheet "D4"), label 1 = ACP (CancerPPD ID), 0 = non-ACP (non-anticancer AMP, SATPdb ID), ref CancerPPD [45] and SATPdb
[8] = ACPs dataset D1, label 1 = ACP, 0 = non-ACP (non-anticancer AMPs from SATPdb), ref CancerPPD/SATPdb
[9] = natural hemolytic peptide dataset HD1, label collected from databases, ref Hemolytik [49], SATPdb [34]

Substance | Activity (cancer cell lines; [2]) | Activity (cancer cell lines; [3]) | Activity (erythrocytes) | Activity (erythrocytes; [6]) | other results
LNWGALLKHLLK [satpdb12233] | 0 | 0 | 1 | – | Activity (cancer cell lines; [1]): 0
KWKSFLKTFKSAKKKVLHKALKAISS [satpdb10714] | 0 | 0 | – | 1 | Activity (cancer cell lines; [4]): 0; Activity (erythrocytes; [5]): 1
KWFKKIPKFLHLAKKF [compound 1150] | – | – | – | 1 | Activity (cancer cell lines; [4]): 1; Activity (cancer cell lines; [7]): 1; Activity (cancer cell lines; ACPs dataset D5 (sheet "D5"), label 1 = ACP (positive set), 0 = non-ACP (negative set), ref CancerPPD [45] and SATPdb): 1; Activity (erythrocytes; [5]): 1
IWRIFRRIFRIF [satpdb11167] | 0 | 0 | – | 1 | Activity (cancer cell lines; [4]): 0; Activity (erythrocytes; [5]): 1
AKKVFKRLEKLFSKIQNDK [satpdb11343] | 0 | 0 | 0 | – | Activity (cancer cell lines; [4]): 0
RLKELITTGGQKIGEKIRRIGQRIKDFFKNLQPREEKS [satpdb11766] | – | – | 1 | – | Activity (cancer cell lines; [8]): 0; Activity (cancer cell lines; [7]): 0; Activity (dataset HD1, hemolytic 1 / non-hemolytic 0) (erythrocytes): 1
GLKEIFKAGLGSLVKGIAAHVAS [satpdb12238] | – | – | 1 | – | Activity (cancer cell lines; [1]): 0
ILPWKWPWWPWRR [satpdb10356] | 0 | 0 | – | 1 | Activity (cancer cell lines; [4]): 0; Activity (erythrocytes; [5]): 1
VKLKVypLKVKLyP [satpdb10873] | 0 | 0 | – | 1 | Activity (cancer cell lines; [4]): 0; Activity (erythrocytes; [5]): 1
WLKKLLKKLLK [satpdb12765] | 0 | 0 | 1 | – | Activity (cancer cell lines; [1]): 0
VCGETCFGGTCNTPGCSCTWPICTRDGLP [satpdb10452] | – | – | – | 1 | Activity (cancer cell lines; [8]): 0; Activity (cancer cell lines; [7]): 0; Activity (dataset HD1, hemolytic 1 / non-hemolytic 0) (erythrocytes; [9]): 1
FLSTIWNGIKSLL [satpdb12436] | 0 | 0 | – | 1 | Activity (cancer cell lines; [1]): 0; Activity (erythrocytes; [5]): 1
LALKSGGWLRLFGLKDKKH [satpdb12814] | 0 | – | – | 1 | Activity (cancer cell lines; [8]): 0; Activity (dataset HD1, hemolytic 1 / non-hemolytic 0) (erythrocytes; [9]): 1
MQFITDLIKKAVDFFKGLFGNK [satpdb11952] | – | – | – | 1 | Activity (cancer cell lines; [8]): 0; Activity (cancer cell lines; [7]): 0; Activity (dataset HD1, hemolytic 1 / non-hemolytic 0) (erythrocytes; [9]): 1
FIGAIARLLSKIF [satpdb13222] | 0 | – | – | 1 | Activity (cancer cell lines; [8]): 0; Activity (dataset HD1, hemolytic 1 / non-hemolytic 0) (erythrocytes; [9]): 1
ALPLIGRVLSGIL [satpdb11361] | 0 | 0 | 1 | – | Activity (cancer cell lines; [4]): 0
RFGRFLRKIRRFRPKVTITIQGSARFG [satpdb11815] | – | – | 1 | – | Activity (cancer cell lines; [8]): 0; Activity (cancer cell lines; [7]): 0; Activity (dataset HD1, hemolytic 1 / non-hemolytic 0) (erythrocytes): 1
GFLSILKKVLAKVMAHMK [satpdb13478] | 0 | 0 | – | 1 | Activity (cancer cell lines; [1]): 0; Activity (erythrocytes; [5]): 1
QPTRRPRPGTGPGRRPRPRPRP [satpdb11920] | – | – | 0 | – | Activity (cancer cell lines; [8]): 0; Activity (cancer cell lines; [7]): 0; Activity (dataset HD1, hemolytic 1 / non-hemolytic 0) (erythrocytes): 0
GIGAvLKvLTTGLPALiSWIkRKRQQ [satpdb13084] | 0 | 0 | – | 0 | Activity (cancer cell lines; [1]): 0; Activity (erythrocytes; [5]): 0
FLPLIGAVLSGIL [satpdb13723] | 0 | 0 | 1 | – | Activity (cancer cell lines; [1]): 0
VKLyPVKLyP [satpdb11941] | 0 | 0 | – | 1 | Activity (cancer cell lines; [4]): 0; Activity (erythrocytes; [5]): 1
DYDWSLRGPPKCATYGQKCRTWSPPNCCWNLRCKAFRCRPR [satpdb13169] | 0 | – | – | 1 | Activity (cancer cell lines; [8]): 0; Activity (dataset HD1, hemolytic 1 / non-hemolytic 0) (erythrocytes; [9]): 1

Substance | Activity (cancer cell lines; [2]) | Activity (cancer cell lines; [3]) | Activity (erythrocytes) | Activity (erythrocytes; [6]) | other results
KLalKLALKALKAALKLA [satpdb12751] | 0 | 0 | 1 | – | Activity (cancer cell lines; [1]): 0
PICKRNGLPVCGETCTLGTCYTQGCTCSW [satpdb10279] | – | – | – | 1 | Activity (cancer cell lines; [8]): 0; Activity (cancer cell lines; [7]): 0; Activity (dataset HD1, hemolytic 1 / non-hemolytic 0) (erythrocytes; [9]): 1
GLGKFLHSAKRFGKAFVGEAMNS [satpdb13009] | 0 | 0 | 1 | – | Activity (cancer cell lines; [1]): 0
FPFSLIPHAIGGLISAIK [satpdb11349] | – | – | – | 1 | Activity (cancer cell lines; ACPs dataset D1, 1 = ACP (positive), 0 = non-ACP (negative), label taken from databases, ref CancerPPD [45] and SATPdb): 0; Activity (cancer cell lines; [7]): 0; Activity (dataset HD1, hemolytic 1 / non-hemolytic 0) (erythrocytes; [9]): 1
VKLKVyPLKVKLyP [satpdb10236] | 0 | 0 | 1 | – | Activity (cancer cell lines; [4]): 0
FLPLIGRVLSGIA [satpdb10103] | 0 | 0 | 1 | – | Activity (cancer cell lines; [4]): 0
KWKKPLLKKLLKKL [satpdb12744] | 0 | 0 | 1 | – | Activity (cancer cell lines; [1]): 0
VFQFLGKIIHHVGNFVHGFSHVF [satpdb12167] | – | – | – | 1 | Activity (cancer cell lines; [8]): 0; Activity (cancer cell lines; [7]): 0; Activity (dataset HD1, hemolytic 1 / non-hemolytic 0) (erythrocytes; [9]): 1
CGESCVWIPCTITALAGCKCKSKVCYNSIP [satpdb10149] | – | – | – | 1 | Activity (cancer cell lines; [8]): 0; Activity (cancer cell lines; [7]): 0; Activity (dataset HD1, hemolytic 1 / non-hemolytic 0) (erythrocytes; [9]): 1
GLLSGTSVRGSI [satpdb16160] | – | – | 1 | – | Activity (dataset HD1, hemolytic 1 / non-hemolytic 0) (erythrocytes): 1
GWGSFFKKAAHVGKHVGKAALT [satpdb28107] | – | – | 0 | – | –
TGRAKRRMQYNRR [satpdb25092] | – | – | 0 | – | Activity (dataset HD1, hemolytic 1 / non-hemolytic 0) (erythrocytes): 0
KWKLKPLLKKLLKKL [satpdb10408] | – | – | 0 | – | –
KVAKQEKKKKKTGRAKRR [satpdb15637] | – | – | 1 | – | Activity (dataset HD1, hemolytic 1 / non-hemolytic 0) (erythrocytes): 1
KKLFKKILkYL [satpdb24648] | – | – | 0 | – | –
KWKKLLKKPLLKKLLKKL [satpdb12329] | – | – | 0 | – | –
CVHWQTNPARTSCIGP [satpdb12022] | – | – | 0 | – | Activity (dataset HD1, hemolytic 1 / non-hemolytic 0) (erythrocytes): 0
LVRGCWTKSYPPKPCFVR [satpdb11737] | – | – | 1 | – | Activity (dataset HD1, hemolytic 1 / non-hemolytic 0) (erythrocytes): 1
EMLKKKEVKMERKT [satpdb18957] | – | – | 0 | – | Activity (dataset HD1, hemolytic 1 / non-hemolytic 0) (erythrocytes): 0
CYCRIPACIAGERRYGTCIYQGRLWAFCC [satpdb11499] | – | – | 1 | – | Activity (dataset HD1, hemolytic 1 / non-hemolytic 0) (erythrocytes): 1
LKLFKKILKFL [satpdb12214] | – | – | 1 | – | –
LRRLWLRANRL [satpdb19164] | – | – | 0 | – | Activity (dataset HD1, hemolytic 1 / non-hemolytic 0) (erythrocytes): 0
